From patent US11198869B2, “Angelman syndrome antisense treatment” (The Texas A&M University System, priority 2017, dated 2021)
Like-named read-outs stand apart in the source and are kept apart here.

Legend:
IPW = experiment: RNA-sequencing of Angelman syndrome iPSC neurons: IPW; assay type: cell-based, human; settings: 30 μM, RNA-seq; for Difference, IPW RNA level relative to vehicle: six days post-treatment
Description: RNA was isolated using Qiagen RNAeasy Plus (74136, Qiagen, Hilden, Germany). RNA concentration was determined using Qubit Fluorometric Quantitation (Thermo Fisher Scientific) and RNA quality was assessed using a 4200 Agilent TapeStation (Agilent, Santa Clara, Calif.). RNA-sequencing libraries were generated using the Illumina TruSeq Stranded Total RNA kit (20020597, Illumina, Inc., San Diego, Calif.) according to the manufacturer's protocol. 75 base-pair paired-end sequencing was performed using a NextSeq 500 (IIlumina, San Diego, Calif.) at the Texas A&M Institute for Genome Sciences and Society Genomics core. Raw sequencing reads were processed using CASAVA. The resulting FASTQ sequences were examined using FASTQC.
Angelman syndrome induced pluripotent stem cells derived neurons Angelman syndrome iPS cells (AG1-0 iPSCs) (ECN001, Kerafast, Boston, Mass.) were co-cultured on irradiated murine embryonic fibroblasts in human embryonic stem cell medium [DMEM/F12 (11330-057, Gibco Biosciences, Dublin, Ireland), 20% Knockout Serum Replacement (10828-028, Thermo Fisher Scientific), 1× Non-essential amino acids, 2 mM L-glutamine, […] 2-Mercaptoethanol, and 4 μg/mL basic Fibroblast Growth Factor]. […]
To determine whether ASO-4.4.PS.L and ASO-6.1.PO-1.O affect the levels of RNA transcripts encoded by the PWS polycistronic transcript, RNA-sequencing was performed on AS iPS cells treated with each ASO and the steady state RNA levels of SNURF, SNRPN, the SNORD116 host-gene transcript (SNHG116), the SNORD116 snoRNAs, IPW, the SNORD115 host-gene transcript (SNHG115), the SNORD115 snoRNAs, and UBE3A-AS were quantified. UBE3A steady state RNA levels were also measured. […]
Normalized FPKM (fragments per […] per million) values of the RefSeq gene annotation will be estimated using Cuffnorm with the default settings and the following option: −u. The FPKM values of each gene annotation was determined for each sample from the output file and used for descriptive and inferential statistics.

UBE3A-AS = UBE3A-AS steady state RNA (qRT-PCR) in glutamatergic iPSC-derived neurons; assay type: cell-based, human; settings: for 30 μM (Mean), normalized UBE3A-AS RNA level relative to vehicle / Emax Estimate (normalized UBE3A-AS RNA level relative to vehicle): 14 DIV to 20 DIV
Description: ASO-4 and ASO-6.1 were also examined in glutamatergic iPSC-derived neurons. Glutamatergic iPSC-derived neurons were treated at 14 DIV with a 10-point ½ log dose response curve of ASO-4 and ASO-6.1 [1 nM, 3 nM, 10 nM, 30 nM, 100 nM, 300 nM, 1 μM, 3 μM, 10 μM, and 30 μM (n=3)]. At 20 DIV, the IC50 and Emax of each ASO was estimated as described above (FIG. 5E-F and Table 15).
GABAergic and glutamatergic induced pluripotent stem cell (iPSC) derived neural precursor cells (NRC-100-010-001 and GNC-301-030-001, Cellular Dynamics International, Madison Wis.) were differentiated into neurons according to the manufactures protocol. Briefly, neural precursor cells were thawed and resuspended in chemically defined medium and added to sterile-culture plates coated with poly-D-lysine and laminin. The medium was replaced 24 hr after plating and then one-half of the medium was replaced every 3-5 days afterwards.
For cultured iPSC-derived neurons, RNA isolation and cDNA synthesis were performed using the Cell-to-CT kit (Thermo Fisher Scientific) in a lysate volume of 55 μl.
The steady state RNA levels of target transcripts were measured using TaqMan quantitative reverse-transcription PCR (qRT-PCR) assays. Total reaction volume was 10 uL, including 2 μl of cDNA, 1× Gene Expression Master mix (4369016, Thermo Fisher Scientific, Waltham, Mass.), and 1× TaqMan primer assay (Thermo Fisher Scientific). Cycling conditions were 2 minutes at 50° C., 10 minutes at 95° C., and 40 cycles of 15 seconds at 95° C. and 1 minute at 60° C., with readings taken at the 60° C. step of every cycle. Reactions were run on a BIO-RAD T1000 CFX96 thermocycler (Bio-Rad Laboratories, Hercules Calif.), with internal control (PPIA, Hs99999904_m1, Thermo Fisher Scientific) and target [UBE3A-AS, Hs01372957_m1; SNORD116-11, Hs04275268_gH; SNORD115, Hs04275288_gH; IPW, Hs03455409_s1; SNORD109A/B, AP47WVR (Thermo Fisher Scientific); UBE3A: forward […] (SEQ ID NO:500); reverse: […] (SEQ ID NO:501); and, probe: […] (SEQ ID NO:502)] reactions performed together. Data was retrieved and analyzed with the BIORAD CFX Maestro software (Bio-Rad Laboratories). Samples with internal control Cq values ≥30 were filtered. Quality of data was visually inspected to identify discrepancies between technical and/or plate replicates. Measurements for inferential statistics and descriptive statistics consist of ΔΔCq values (2^−ΔΔCq=2^−(Cq[target]−Cq[internal control])−(Cq[target]−Cq[internal control])).

[1] = parallel model, 4 Parameter logistic, read-out: IC50 (M), UBE3A-AS
[2] = treated 14 DIV, RNA 20 DIV, 10-point dose curve, full model, 4-parameter logistic (Hill), read-out: IC50 Estimate, UBE3A-AS

| IC50 (UBE3A-AS; [1]) | IC50 (UBE3A-AS; [2]) | Substance | reduction of IPW levels (IPW; effect not significant) | Difference, IPW RNA level relative to vehicle (IPW) | 30 μM (Mean), normalized UBE3A-AS RNA level relative to vehicle (UBE3A-AS) | Emax Estimate (normalized UBE3A-AS RNA level relative to vehicle) (UBE3A-AS; 4-parameter logistic (Hill)) | Relative Potency (UBE3A-AS; parallel model, relative to ASO-4 = 1) |
| --- | --- | --- | --- | --- | --- | --- | --- |
| – | – | A^L*G^L*A^L*a*t*g*g*c*a*c*a*t*c*t*5mC^L*T^L*T^L*G^L (NNNATGGCACATCTNNNN; LNA gapmer, PS, 5-methylcytosine, chemistry not fully specified) [ASO-4.4.PS.L] | 1.5 fold | −0.49 | – | – | – |
| 7.8e-07 M | 2.44e-07 M | C^O*U^O*G^O*G^O*t*g*t*c*a*a*c*a*a*g*C^O*C^O*A^O*A^O [ASO-6.1] | – | – | 0.04 | −0.27 | – |
| – | – | C^O*U^O*G^O*G^O-t*g*t*c*a*a*c*a*a*g-C^O*C^O*A^O*A^o [ASO-6.1.PO-1.O] | – | 0.18 | – | – | – |
| 3.06e-06 M | 0.000121 M | U^O*A^O*G^O*A^O*A^O*t*g*g*c*a*c*a*t*c*t*C^O*U^O*U^O*G^O*G^O [ASO-4] | – | – | 0.17 | −1.45 | 1 |
